Source: ChEMBL document CHEMBL3228046, “A structural modification study of procarbazine” (1979)
Calls of active or inactive are those of the source. The calls are words filed in the database; no cut-off is given here.

Legend:
KB = assay: Antineoplastic activity against human KB cells; type: functional, cell-based
L1210 [1] = assay: Antineoplastic activity against mouse L1210 cells allografted in BDF1 mouse administered qd for 1 to 9 days starting 24 hrs after tumor cell implantation; type: functional, cell-based
P388 [2] = assay: Antineoplastic activity against mouse P388 cells allografted in BDF1 mouse administered qd for 1 to 9 days starting 24 hrs after tumor cell implantation; type: functional, cell-based
P388 [3] = assay: Antineoplastic activity against mouse P388 cells allografted in BDF1 mouse at 800 mg/kg administered qd for 1 to 9 days starting 24 hrs after tumor cell implantation relative to control; type: functional
L1210 [4] = assay: Antineoplastic activity against mouse L1210 cells allografted in BDF1 mouse at 50 mg/kg administered qd for 1 to 9 days starting 24 hrs after tumor cell implantation relative to control; type: functional

Structure (SMILES)	Activity (KB)	Activity (L1210 [1])	Activity (P388 [2])	T/C (P388 [3])	T/C (L1210 [4])
CONCc1ccc(C(=O)NC(C)C)cc1	inactive	inactive	inactive		
CNC(=S)NCc1ccc(C(=O)NC(C)C)cc1	inactive	inactive	inactive		
CNC(=S)Nc1ccc(C(=O)NC(C)C)cc1	inactive	inactive	inactive		
CNOCc1ccc(C(=O)NC(C)C)cc1	inactive	inactive	inactive		
CC(C)NC(=O)c1ccc(C/[N+]([O-])=C/c2ccccc2)cc1				153	
CNNCc1c[nH]c(=O)[nH]c1=O	inactive	inactive	inactive		
CNC(=O)Nc1ccc(C(=O)NC(C)C)cc1					132
CO/[N+](=C\c1ccccc1)Cc1ccc(C(=O)NC(C)C)cc1	inactive	inactive	inactive		
CC(C)NC(=O)c1ccc(CON(C)C(=O)OCc2ccccc2)cc1	inactive	inactive	inactive		
CNC(=O)NCc1ccc(C(=O)NC(C)C)cc1	inactive	inactive	inactive		
CNNCc1ccc(/C=N/NC(N)=S)cc1	inactive	inactive	inactive		
CC(C)NC(=O)c1ccc(CONC(=O)OCc2ccccc2)cc1	inactive	inactive	inactive		
CC(C)NC(=O)c1ccc(CBr)cc1	Active				
